Assay results reported in the NIST ThermoML archive (doi:10.1021/acs.jced.6b00516).
± gives the expanded uncertainty stated by the source.

Legend:
[1] = xn = mol fraction of the nth substance listed; conditions: 102 kPa, Liquid, Concentric cylinders viscometry, x2 = 0
[2] = for viscosity / speed of sound / mass density: 102 kPa, Liquid; for viscosity: Concentric cylinders viscometry; for speed of sound: Frequency=3 MHz, Sing-around technique in a fixed-path interferometer; for mass density: Vibrating tube method; for surface tension liquid-gas: Sessile Drop

SMILES	viscosity ([1]; 293.15 K) [mPa·s]	viscosity ([2]; 293.15 K) [mPa·s]	speed of sound ([2]; 293.15 K) [m/s]	mass density ([2]; 293.15 K) [kg/m3]	viscosity ([2]; 303.15 K) [mPa·s]	speed of sound ([2]; 303.15 K) [m/s]	mass density ([2]; 303.15 K) [kg/m3]	viscosity ([2]; 313.15 K) [mPa·s]	speed of sound ([2]; 313.15 K) [m/s]	mass density ([2]; 313.15 K) [kg/m3]	viscosity ([2]; 323.15 K) [mPa·s]	speed of sound ([2]; 323.15 K) [m/s]	mass density ([2]; 323.15 K) [kg/m3]	viscosity ([2]; 333.15 K) [mPa·s]	speed of sound ([2]; 333.15 K) [m/s]	mass density ([2]; 333.15 K) [kg/m3]	viscosity ([2]; 343.15 K) [mPa·s]	mass density ([2]; 343.15 K) [kg/m3]	viscosity ([2]; 353.15 K) [mPa·s]	mass density ([2]; 353.15 K) [kg/m3]	further results
Cc1ccccc1 [toluene] + CCCCC1CCCCC1	0.607 ± 0.011	–	–	–	–	–	–	–	–	–	–	–	–	–	–	–	–	–	–	–	viscosity ([1]; 303.15 K): 0.54 ± 0.011 mPa·s; viscosity ([1]; 313.15 K): 0.483 ± 0.011 mPa·s; viscosity ([1]; 323.15 K): 0.434 ± 0.011 mPa·s; viscosity ([1]; 333.15 K): 0.391 ± 0.011 mPa·s; viscosity ([1]; 343.15 K): 0.349 ± 0.011 mPa·s; viscosity ([1]; 353.15 K): 0.307 ± 0.011 mPa·s
CCCCCCCCCCCCCCCC [hexadecane]	–	3.44 ± 0.02	1357.2 ± 0.8	773.41 ± 0.14	2.72 ± 0.02	1319.5 ± 0.8	766.47 ± 0.14	2.21 ± 0.02	1283.3 ± 0.8	759.55 ± 0.15	1.83 ± 0.01	1247.3 ± 0.8	752.63 ± 0.15	1.54 ± 0.01	1212 ± 0.8	745.71 ± 0.15	1.31 ± 0.01	738.8 ± 0.2	1.14 ± 0.01	731.9 ± 0.3	surface tension liquid-gas ([2]; 294 K): 27.1 ± 0.3 mN/m; viscosity ([2]; 363.15 K): 0.994 ± 0.012 mPa·s; viscosity ([2]; 373.15 K): 0.878 ± 0.012 mPa·s
CCCCC1CCCCC1 [butylcyclohexane]	–	1.31 ± 0.01	1328.4 ± 0.8	799.33 ± 0.14	1.12 ± 0.01	1288.7 ± 0.8	791.82 ± 0.14	0.961 ± 0.012	1249.5 ± 0.8	784.28 ± 0.14	0.837 ± 0.012	1210.8 ± 0.8	776.7 ± 0.14	0.735 ± 0.011	1172.8 ± 0.8	769.09 ± 0.14	0.648 ± 0.011	761.4 ± 0.2	0.576 ± 0.021	753.7 ± 0.3	surface tension liquid-gas ([2]; 294 K): 26.7 ± 0.2 mN/m
Cc1ccccc1 [toluene]	–	0.607 ± 0.011	1326.6 ± 0.8	866.84 ± 0.13	0.54 ± 0.011	1283.6 ± 0.8	857.52 ± 0.13	0.483 ± 0.011	1241.1 ± 0.8	848.14 ± 0.14	0.434 ± 0.011	1199.2 ± 0.8	838.68 ± 0.14	0.391 ± 0.011	1157.7 ± 0.8	829.15 ± 0.14	0.349 ± 0.027	819.6 ± 0.2	0.307 ± 0.011	809.8 ± 0.5	surface tension liquid-gas ([2]; 294.2 K): 28.6 ± 0.2 mN/m
CCCCCCCCCCCCCCCC [hexadecane] + CCCCC1CCCCC1	3.44 ± 0.02	–	–	–	–	–	–	–	–	–	–	–	–	–	–	–	–	–	–	–	viscosity ([1]; 303.15 K): 2.72 ± 0.02 mPa·s; viscosity ([1]; 313.15 K): 2.21 ± 0.02 mPa·s; viscosity ([1]; 323.15 K): 1.83 ± 0.01 mPa·s; viscosity ([1]; 333.15 K): 1.54 ± 0.01 mPa·s; viscosity ([1]; 343.15 K): 1.31 ± 0.01 mPa·s; viscosity ([1]; 353.15 K): 1.14 ± 0.01 mPa·s
